Several values for one entry are separate records, joined by “and”; a condition that tells them apart may be missing. Equal entries are not always repeated. Where two headings read alike, the source gives them in different places. *1 amine or outer side, *2 acyl side, *3 side chain or, on linkers, in order; H or OH if unused. Where a SMILES comes first, the peptide text is derived from it. Side-chain parts run from the residue outwards. [ ]: non-standard residue; d: D form. The star is where a group is joined. Bip(2'-Et-4'-O(CH2)4NH2) = CCc1cc(OCCCCN[*:3])ccc1-c1ccc(C[C@H](N[*:1])C(=O)[*:2])cc1; Bip(2'-Et,4'-O(CH2)4N3) = CCc1cc(OCCCCN=[N+]=[N-])ccc1-c1ccc(C[C@H](N)C(=O)O)cc1; Malonyl(2,2-Me2,histaminyl) = CC(C)(C(=O)NCCc1cnc[nH]1)C(=O)*; Nva(5-(3,5-Me2Ph)) = Cc1cc(C)cc(CCC[C@H](N)C(=O)O)c1; Ala(1H-tetrazol-5-yl) = N[C@@H](Cc1nnn[nH]1)C(=O)O; PEG8 = NCCOCCOCCOCCOCCOCCOCCOCCOCCC(=O)O; αMePhe(2-F) = C[C@](N)(Cc1ccccc1F)C(=O)O; DBCO = C1#Cc2ccccc2N(*)Cc2ccccc21; Suc = O=C(CCC(=O)[*:2])[*:1]
Experiments:
HEK293/CRE-Luc cells = experiment: Luciferase reporter assay, HEK293/CRE-Luc cells without GLP1R (Example 17); assay type: cell-based, human
Procedure, shortened: (§1)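 HEK293 cells carrying a CRE-driven firefly luciferase reporter were exposed to 3-fold serial dilutions of payloads or linker-payloads (12 points, 0.2% DMSO final) for 4–6 h, then luminescence was read. EC50 came from a four-parameter logistic fit; S/N is top RLU over untreated wells, and relative potency and S/N are referenced to M2361.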

hERG potassium channels = hERG potassium channels (Homo sapiens, UniProt Q12809); experiment: cell-based
Procedure: For the assay, CHO cells stably expressing hERG potassium channels were plated and cultured for at least 2 days in a humidified and air-controlled (5% CO2) incubator at 37° C. prior to use in electrophysiological experiments. Cells were then harvested using TrypLE and resuspended in physiological solution (10 mM HEPES, 80 mM NaCl, 4 mM KCl, 2 mM CaCl2, 1 mM MgCl2, 5 mM Glucose, 60 mM NM DG, pH 7.4). Test compounds were dissolved in water to obtain stock solutions for different test concentrations. […] One 40 μL addition of the vehicle was applied, followed by a 300s baseline recording period. […] Recordings were required to pass quality control over the duration of the recording or the well was abandoned, and the compound was retested, all automatically set by PatchControl. […] A minimum of 2 replicates per concentration were obtained. […] Curve-fitting and IC50 value calculations were performed by GraphPad Prism 5.0.

human GLP1R [1] = target: T1, human GLP1R (Homo sapiens, UniProt P43220); experiment: Human GLP1R cAMP accumulation assay; assay type: cell-based; design: HEK293 cells over-expressing full length human GLP-1R were utilized; expressed in transfected cells; host or cells: HEK293 (HEK293/hGLP1R); settings: HEK293/hGLP1R cells; Table 4; read-out: cAMP EC50
Procedure, shortened: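 cAMP accumulation measured after 30 min at 23° C, with 500 μM IBMX in HEPES-buffered HBSS plus 0.1% BSA, in HEK293 cells expressing full-length hGLP-1R. Levels read by D2-cAMP/antibody immunoassay via standard curve, scaled between low and high controls. EC50 fitted four-parameter over a 10-point curve.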

human GLP1R [2] = target: T1, human GLP1R; experiment: Luciferase reporter assay, HEK293/CRE-Luc/hGLP1R (Example 17); assay type: cell-based; design: engineered to express full-length human GLP1R, cynomolgus GLP1R; expressed in transfected cells; host or cells: HEK293/CRE-Luc; settings: HEK293/CRE-Luc/hGLP1R; for EC50: payloads and linker-payloads, experiments A-E, M2361 repeated in each, read-out: EC50
Procedure, shortened: as §1

human GLP1R [3] = target: T1, human GLP1R; experiment: CRE-Luc cAMP reporter assay, HEK293/CRE-Luc/hGLP1R (Example 24); assay type: cell-based; design: engineered to express full-length human GLP1R, cynomolgus GLP1R; expressed in transfected cells; host or cells: HEK293/CRE-Luc; settings: HEK293, read-out: HEK293/CRE-Luc/hGLP1R Emax (% GLP-1)
From the text: To test the activity of GLP1R agonist payloads, GLP1R agonist linker-payloads (LPs), and anti-GLP1R antibody-tethered ligands (ATLs) of the invention, a cell-based cAMP responsive luciferase reporter assay was developed. To generate the assay cell line, the firefly luciferase gene was placed under the control of a cAMP response element (CRE) located upstream of a minimal promoter and transfected into HEK293 cells and referred to herein as HEK293/CRE-Luc cells. HEK293/CRE-Luc cells were then engineered to express full-length human GLP1R (HEK293/CRE-Luc/hGLP1R), cynomolgus GLP1R (HEK293/CRE-Luc/mfGLP1R), or mouse GLP1R (HEK293/CRE-Luc/mGLP1R).
Serial dilutions of free payload and linker payloads (LP) were performed in 100% DMSO (ATCC, #4-X-5), followed by 1:100 dilution in assay media. Test articles were added to cells (1:5 dilution) with the last well in each serial dilution series serving as a blank control containing only assay media for antibodies and ATLs or assay media with 0.2% DMSO for payloads and LPs. After a 5-hour incubation at 37° C., luciferase activity was determined by addition of ONE-Glo reagent (Promega, #E6130) followed by measurement of relative light units (RLUs) on an EnVision Plate Reader (Perkin Elmer).
(§2) EC50 values for luminescence assays were determined using a four-parameter logistic equation over a 12-point dose response curve (GraphPad Prism).

human GLP1R [4] = target: T1, human GLP1R; experiment: b-arrestin 2 recruitment assay, PathHunter CHO/b-arrestin 2/hGLP1R cells; assay type: cell-based; settings: read-out: CHO/b-arrestin 2/hGLP1R Emax (% GLP-1)
Procedure: The b-arrestin 2 recruitment assay was performed following manufacter's instructions (Eurofins DiscoverX, #93-0300E2CP0M), with minor modifications. […] Serial dilutions of free payload and LP were performed in 100% DMSO, followed by 1:100 dilution in assay media. Test articles were added to cells (1:5 dilution) with the last well in each serial dilution series serving as a blank control containing only assay media for antibodies and ATLs or assay media with 0.2% DMSO for payload and LP. After a 90-minute incubation at 37° C., PathHunter Detection Reagent (Eurofins DiscoverX, #93-0300E2CP0M) was added to the wells followed by a 1-hour incubation at room temperature. RLUs were measured on EnVision Plate Reader (Perkin Elmer).
as §2

[5] = Water solubility of linker-payload; assay type: physicochemical
[6] = HEK293/CRE-Luc cells without hGLP1R, payloads and linker-payloads
[7] = highest RLU / RLU of untreated wells
[8] = relative to M2361 of the same experiment
[9] = ATDCs and references (Table 27)

T1 sequence (P43220 24-463): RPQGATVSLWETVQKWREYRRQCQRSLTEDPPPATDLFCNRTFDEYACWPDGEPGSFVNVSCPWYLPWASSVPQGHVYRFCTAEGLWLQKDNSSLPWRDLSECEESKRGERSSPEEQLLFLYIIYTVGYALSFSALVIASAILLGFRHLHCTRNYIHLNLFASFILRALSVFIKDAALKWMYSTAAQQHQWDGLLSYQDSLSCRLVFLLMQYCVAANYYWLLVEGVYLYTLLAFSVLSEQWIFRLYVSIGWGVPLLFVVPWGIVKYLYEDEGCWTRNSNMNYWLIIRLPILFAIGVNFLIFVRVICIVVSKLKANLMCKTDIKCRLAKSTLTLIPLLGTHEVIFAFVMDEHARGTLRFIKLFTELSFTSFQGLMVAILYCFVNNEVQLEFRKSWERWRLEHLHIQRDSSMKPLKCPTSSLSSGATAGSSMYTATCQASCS
hERG potassium channels, sequence (Q12809 whole entry): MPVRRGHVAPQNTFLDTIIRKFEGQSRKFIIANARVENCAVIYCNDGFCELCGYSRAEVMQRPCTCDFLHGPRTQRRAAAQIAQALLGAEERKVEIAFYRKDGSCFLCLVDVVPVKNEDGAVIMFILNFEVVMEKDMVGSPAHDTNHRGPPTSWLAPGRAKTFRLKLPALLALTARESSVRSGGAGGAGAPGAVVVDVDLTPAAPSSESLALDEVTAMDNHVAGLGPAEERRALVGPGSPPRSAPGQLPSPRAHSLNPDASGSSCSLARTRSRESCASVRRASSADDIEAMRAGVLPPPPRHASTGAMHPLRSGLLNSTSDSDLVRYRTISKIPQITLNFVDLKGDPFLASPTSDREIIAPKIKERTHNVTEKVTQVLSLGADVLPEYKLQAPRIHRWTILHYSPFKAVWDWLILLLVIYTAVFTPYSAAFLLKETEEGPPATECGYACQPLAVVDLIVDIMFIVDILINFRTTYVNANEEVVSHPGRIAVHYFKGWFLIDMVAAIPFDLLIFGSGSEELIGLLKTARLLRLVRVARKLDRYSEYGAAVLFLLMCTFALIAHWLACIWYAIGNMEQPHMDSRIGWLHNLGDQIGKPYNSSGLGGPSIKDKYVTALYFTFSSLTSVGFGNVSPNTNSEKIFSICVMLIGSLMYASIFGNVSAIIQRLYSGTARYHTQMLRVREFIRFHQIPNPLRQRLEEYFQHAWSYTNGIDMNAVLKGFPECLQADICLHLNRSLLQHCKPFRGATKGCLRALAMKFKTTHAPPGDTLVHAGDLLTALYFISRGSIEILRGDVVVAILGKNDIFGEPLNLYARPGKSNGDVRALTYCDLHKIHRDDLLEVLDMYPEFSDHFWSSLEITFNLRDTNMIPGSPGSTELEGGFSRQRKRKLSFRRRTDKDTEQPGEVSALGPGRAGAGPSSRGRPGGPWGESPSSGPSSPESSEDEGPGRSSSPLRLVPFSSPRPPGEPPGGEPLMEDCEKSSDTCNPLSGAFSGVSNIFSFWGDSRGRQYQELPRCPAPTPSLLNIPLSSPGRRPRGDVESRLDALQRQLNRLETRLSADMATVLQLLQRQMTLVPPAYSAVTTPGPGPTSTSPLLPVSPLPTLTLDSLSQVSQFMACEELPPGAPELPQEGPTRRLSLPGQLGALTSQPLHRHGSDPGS

| solubility [5] | SMILES | S/N (HEK293/CRE-Luc cells; [6]) | EC50 (HEK293/CRE-Luc cells; HEK293/CRE-Luc cells without hGLP1R, payloads and linker-payloads, read-out: EC50) | IC50 (hERG potassium channels) | EC50 (human GLP1R [1]) | S/N (human GLP1R [2]; [7]) | EC50 (human GLP1R [2]) | Relative Potency (% M2361 EC50) (human GLP1R [2]; [8]) | Relative Signal:Noise (% M2361) (human GLP1R [2]; [8]) | S/N (HEK293/CRE-Luc cells; HEK293/CRE-Luc cells without hGLP1R, ATDCs and references (Table 27)) | EC50 (HEK293/CRE-Luc cells; HEK293/CRE-Luc cells without hGLP1R, ATDCs and references (Table 27), read-out: EC50) | EC50 (HEK293/CRE-Luc cells; Table 28, reporter cells without GLP1R, read-out: HEK293/CRE-Luc EC50) | EC50 (HEK293/CRE-Luc cells; Table 29, reporter cells without GLP1R, read-out: HEK293/CRE-Luc EC50) | Emax (human GLP1R [3]) | Emax (human GLP1R [4]) | Relative Potency (% M2361 EC50) (human GLP1R [2]; [9]) | Relative Signal:Noise (% M2361) (human GLP1R [2]; [9]) | S/N (human GLP1R [2]; [9]) |
| --- | --- | --- | --- | --- | --- | --- | --- | --- | --- | --- | --- | --- | --- | --- | --- | --- | --- | --- |
| – | CCc1cc(OCCCCn2cc(COCCOCCOCCOCCNC(=O)COC3C#CCCCCC3)nn2)ccc1-c1ccc(C[C@H](NC(=O)[C@H](CC(=O)O)NC(=O)[C@H](CO)NC(=O)[C@@H](NC(=O)[C@](C)(Cc2ccccc2F)NC(=O)[C@@H](NC(=O)CNC(=O)[C@H](Cc2nn[nH]n2)NC(=O)C(C)(C)C(=O)NCCc2cnc[nH]2)[C@@H](C)O)[C@@H](C)O)C(=O)N[C@@H](CCCc2cc(C)cc(C)c2)C(N)=O)cc1 (stereo partly shown) [LP10, COT-PEG4-triazole-P8] | 1.1 | > 200 nM | > 100000 nM | 0.982 nM | 51.7 | 0.0391 nM | 13.6% | 78.7% | – | – | – | – | – | – | – | – | – |
| – | CCc1cc(OCCCCN=[N+]=[N-])ccc1-c1ccc(C[C@H](NC(=O)[C@H](CC(=O)O)NC(=O)[C@H](CO)NC(=O)[C@@H](NC(=O)[C@](C)(Cc2ccccc2F)NC(=O)[C@@H](NC(=O)CNC(=O)[C@H](Cc2nn[nH]n2)NC(=O)C(C)(C)C(=O)NCCc2cnc[nH]2)[C@@H](C)O)[C@@H](C)O)C(=O)N[C@@H](CCCc2cc(C)cc(C)c2)C(N)=O)cc1 [M2361] ({Malonyl(2,2-Me2,histaminyl)}-[Ala(1H-tetrazol-5-yl)]GT[αMePhe(2-F)]TSD[Bip(2'-Et,4'-O(CH2)4N3)][Nva(5-(3,5-Me2Ph))]-NH2) | 1.5 and 1.3 | – | – | – | – | – | 100.0% | 100.0% | 1.3 | > 20 nM | > 200 nM | > 30 nM | 95.8% | 107% | 100.0% | 100.0% | 64.3 |
| ≥ 0.06 µM | CCc1cc(OCCCCNC(=O)CCOCCOCCOCCOCCOCCOCCOCCOCCNC(=O)CCC(=O)N2Cc3ccccc3C#Cc3ccccc32)ccc1-c1ccc(C[C@H](NC(=O)[C@H](CC(=O)O)NC(=O)[C@H](CO)NC(=O)[C@@H](NC(=O)[C@](C)(Cc2ccccc2F)NC(=O)[C@@H](NC(=O)CNC(=O)[C@H](Cc2nn[nH]n2)NC(=O)C(C)(C)C(=O)NCCc2cnc[nH]2)[C@@H](C)O)[C@@H](C)O)C(=O)N[C@@H](CCCc2cc(C)cc(C)c2)C(N)=O)cc1 [LP2, DIBAC-suc-PEG8-P9] ({Malonyl(2,2-Me2,histaminyl)}-[Ala(1H-tetrazol-5-yl)]GT[αMePhe(2-F)]TSD[Bip(2'-Et-4'-O(CH2)4NH2)]([PEG8-Suc-DBCO])[Nva(5-(3,5-Me2Ph))]-NH2) | – | – | – | – | 323.1 | 0.0742 nM | 36.8% | 137.0% | – | – | – | – | – | – | – | – | – |
